Experimental data as given in patent US8501728B2, “Substituted heteroarylamide oxazepinopyrimidone derivatives” (priority 2008, dated 2013).
Read-outs that look alike come from different tables or passages of the source.

Biological target: T1, commercial GSK3beta (Millipore) (Homo sapiens, UniProt P49841)
T1 construct: purchased Millipore
Test: biochemical
Method: In a fourth protocol: 7.5 μM of prephosphorylated GS1 peptide and 10 μM ATP (containing 300,000 cpm of ^33P-ATP) were incubated in 50 mM Hepes, pH 7.2, 1 mM DTT, 1 mM MgCl2, 1 mM EGTA, 0.01% Tween 20 buffer for 90 minutes at room temperature in the presence of commercial GSK3beta (Millipore) (total reaction volume: 100 microliters).
Inhibitors were solubilised in DMSO (final solvent concentration in the reaction medium, 1%).
The reaction was stopped with 100 microliters of a solution made of 25 g polyphosphoric acid (85% P2O5), 126 ml 85% H3PO4, H2O to 500 ml and then diluted to 1:100 before use. An aliquot of the reaction mixture was then transferred to Whatman P81 cation exchange filters and rinsed with the solution described above. Incorporated ^33P radioactivity was determined by liquid scintillation spectrometry.
(Woodgett, J. R. (1989) Analytical Biochemistry 180, 237-241.

[1] = protocol 4: 7.5 μM GS1 peptide, 10 μM ATP, 90 minutes at room temperature, read-out: GSK3β inhibitory activity IC50

T1 sequence (P49841 whole entry): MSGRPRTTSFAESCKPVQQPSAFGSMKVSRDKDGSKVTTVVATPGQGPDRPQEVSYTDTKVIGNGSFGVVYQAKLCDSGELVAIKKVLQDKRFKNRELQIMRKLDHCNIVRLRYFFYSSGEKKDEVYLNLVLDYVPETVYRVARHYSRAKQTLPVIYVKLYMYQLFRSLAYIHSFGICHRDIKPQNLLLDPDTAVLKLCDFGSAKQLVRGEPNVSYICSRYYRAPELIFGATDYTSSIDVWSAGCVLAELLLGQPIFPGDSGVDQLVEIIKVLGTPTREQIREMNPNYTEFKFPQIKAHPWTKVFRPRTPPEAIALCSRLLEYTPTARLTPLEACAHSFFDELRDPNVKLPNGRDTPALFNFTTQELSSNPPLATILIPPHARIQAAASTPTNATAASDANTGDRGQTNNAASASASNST

Row | IC50 [1] [nM] | Structure (SMILES) | IC50 [nM]
1 | 5 | O=C(NC1COCCn2c1nc(-c1ccncn1)cc2=O)c1cc(F)cc2c1OCOC2 (racemic) [compound 12, (+/−)-6-Fluoro-4H-benzo[1,3]dioxine-8-carboxylic acid (4-oxo-2-pyrimidin-4-yl-5,6,8,9-tetrahydro-4H-7-oxa-1,4-a-diaza-benzocyclohepten-9-yl)-amide] | –
2 | 31 | CSc1ncc(Cl)c(C(=O)NC2COCCn3c2nc(-c2ccncn2)cc3=O)n1 (racemic) [compound 15, (+/−)-5-Chloro-2-methylsulfanyl-pyrimidine-4-carboxylic acid (4-oxo-2-pyrimidin-4-yl-5,6,8,9-tetrahydro-4H-7-oxa-1,4-a-diaza-benzocyclohepten-9-yl)-amide] | –
3 | – | O=C(NC1COCCn2c1nc(-c1ccncn1)cc2=O)c1ccccn1 (racemic) [compound 17, (+/−)-Pyridine-2-carboxylic acid (4-oxo-2-pyrimidin-4-yl-5,6,8,9-tetrahydro-4H-7-oxa-1,4-a-diaza-benzocyclohepten-9-yl)-amide] | 15
4 | 52 | CSc1ncc(Br)c(C(=O)NC2COCCn3c2nc(-c2ccncn2)cc3=O)n1 (racemic) [compound 18, (+/−)-5-Bromo-2-methylsulfanyl-pyrimidine-4-carboxylic acid (4-oxo-2-pyrimidin-4-yl-5,6,8,9-tetrahydro-4H-7-oxa-1,4-a-diaza-benzocyclohepten-9-yl)-amide] | –
